Assay results published in US20250074892A1, “CARBONYL BRIDGED HETEROCYCLIC COMPOUND, AND COMPOSITION AND APPLICATION THEREOF” (BEIJING SCITECH-MQ PHARMACEUTICALS LIMITED, priority 2022, published 2025).
Where two headings read alike, the source gives them in different places.

How the values were obtained:
[1] = Rat PK&BBB (pharmacokinetics and brain penetration); assay type: in vivo, SD rats
Method: (§1) In this assay, the pharmacokinetic characteristics and ability to penetrate the blood-brain barrier of the compounds of the present application were assayed after administration of some of the compounds of the present application to SD rats, CD-1 mice or beagle dogs by single oral administration and intravenous injection.
(§2) 1. Intravenous (IV) injection group: an appropriate amount of the assay compound was weighed, and completely dissolved in an appropriate volume of vehicle. The mixture was stirred, vortexed and/or sonicated. Once a solution was obtained, the vehicle was gradually added to a final volume to reach the target concentration. The solution was vortexed, and sonicated to obtain a homogeneous solution. The solution was filtered through a 0.22 m PVDF membrane.
as §2, with “2. Oral (PO)” for “1. Intravenous (IV) injection”, “solution.” for “solution. The solution was filtered through a 0.22 m PVDF membrane.”
(§3) Meanwhile, the IV group was not fasted and the PO group was fasted overnight (>12 hrs) and given food 2 hrs after drug administration. All animals had free access to water. The dosing regimen and pharmacokinetic sampling regimen are given in Table 10 and Table 11 below, respectively.
Rats were administered according to the above protocol, and blood and brain tissue samples were collected and processed at predetermined time points (collection and processing were performed according to conventional methods in the art).
(§4) The brain was weighed and homogenized by adding 4 times of ultrapure water. Six times volume of acetonitrile was added respectively to the whole blood samples and brain homogenate (20 times volume of acetonitrile was added to the whole blood sample of mouse PK). The mixture was vortexed for 1 min and then centrifuged at 4° C., 4500 rpm for 15 min. According to the instrument response, the supernatant was diluted with diluent and the sample was analyzed by LC/MS.
(§5) Pharmacokinetic parameters were calculated using WinNonlin software. The following pharmacokinetic parameters were calculated if appropriate plasma/whole blood drug concentration-time data were available: CL (clearance); Vd (apparent volume of distribution); T1/2 (elimination half-life time); Cmax (peak concentration); Tmax (time to peak); AUC (area under plasma drug concentration-time curve); MRT (mean retention time); F % (bioavailability).

L929 cells = test: Inhibition of cell necrosis (CCK8 method), L929 cells; assay type: cell-based, mouse; conditions: Mus musculus, L929, L929, Murine TNF-α/Z-VAD-FMK, 4-8 hours, CCK8
Summary of the method: (§6)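 HT29 (1.2×10^4/well) and L929 (2.0×10^4/well) cells were pretreated 30 min with compound, 9-point 4-fold series from 10 μM in duplicate. Necrosis was induced with human TNF-α 20 ng/mL, AT-406 […] and Z-VAD-FMK 20 μM for 16 h (HT29), or murine TNF-α 20 ng/mL and Z-VAD-FMK 25 μM for 4-8 h (L929). CCK8 viability; IC50 from dose-effect curve.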

HT29 cells = test: Inhibition of cell necrosis (CCK8 method), HT29 cells; assay type: cell-based, human; conditions: Homo sapiens, HT-29, 16 h, HT29, Human TNF-α/AT-406/Z-VAD-FMK, 16 hours, CCK8
Summary of the method: as §6

[2] = Beagle PK (pharmacokinetics); assay type: in vivo, beagle dogs; conditions: whole blood, Beagle dog
Method: as §1, §2
as §2, with “2. Oral (PO)” for “1. Intravenous (IV) injection”, “solution.” for “solution. The solution was filtered through a 0.22 m PVDF membrane.”
as §3, §4, §5

[3] = Sprague-Dawley, rat, whole blood, iv, 3 mg/kg, IV 3 mg/kg, read-out: Blood drug concentration
[4] = Sprague-Dawley, rat, whole blood, po, 30 mg/kg, PO 30 mg/kg, read-out: Blood drug concentration
[5] = IV 1 mg/kg, read-out: Blood drug concentration
[6] = PO 3 mg/kg, read-out: Blood drug concentration

AUC(0-inf) ([1]; SD, whole blood, IV 3 mg/kg): 560 ± 62 ng·h/mL
AUC(0-t) ([1]; SD, whole blood, IV 3 mg/kg): 559 ± 62 ng·h/mL
Vd ([1]; SD, whole blood, IV 3 mg/kg): 8.24 ± 0.68 L/kg
half-life ([1]; SD, whole blood, IV 3 mg/kg): 1.06 ± 0.07 h
clearance ([1]; SD, whole blood, IV 3 mg/kg, read-out: Cl—obs): 90.1 ± 10.7 mL/min/kg
AUC(0-inf) ([1]; SD, whole blood, PO 30 mg/kg): 967 ± 285 ng·h/mL
AUC(0-t) ([1]; SD, whole blood, PO 30 mg/kg): 922 ± 357 ng·h/mL
Cmax ([1]; SD, whole blood, PO 30 mg/kg): 309 ± 103 ng/mL
Tmax ([1]; SD, whole blood, PO 30 mg/kg): 1 h
half-life ([1]; SD, whole blood, PO 30 mg/kg): 3.1 ± 0.24 h
bioavailability ([1]; SD, whole blood, PO 30 mg/kg vs IV 3 mg/kg): 17.3 ± 5.1%
Kp at 2 h ([1]; Sprague-Dawley, brain / whole blood, PO 30 mg/kg, 2 h after administration, read-out: Brain/blood ratio): 1.49
concentration at 2 h ([1]; Sprague-Dawley, rat, brain, po, 30 mg/kg, PO 30 mg/kg, 2 h after administration, read-out: Brain concentration): 397 ng/g
concentration at 0 h [1, 3]: 0 ng/mL
concentration at 0.083 h ([1]; Sprague-Dawley, rat, whole blood, iv, 3 mg/kg, IV 3 mg/kg, 0.083 hr, read-out: Blood drug concentration): 1170 ± 149 ng/mL
concentration at 0.25 h [1, 3]: 571 ± 31 ng/mL
concentration at 0.5 h [1, 3]: 275 ± 24 ng/mL
concentration at 1 h [1, 3]: 94.7 ± 10.7 ng/mL
concentration at 2 h ([1]; Sprague-Dawley, rat, whole blood, iv, 3 mg/kg, IV 3 mg/kg, 2 hr, read-out: Blood drug concentration): 25.5 ± 4.7 ng/mL
concentration at 4 h [1, 3]: 4.13 ± 0.75 ng/mL
concentration at 7 h [1, 3]: 0.927 ± 0.301 ng/mL
concentration at 0 h [1, 4]: 0 ng/mL
concentration at 0.25 h [1, 4]: 85.6 ± 26.6 ng/mL
concentration at 0.5 h [1, 4]: 239 ± 47 ng/mL
concentration at 1 h [1, 4]: 309 ± 103 ng/mL
concentration at 2 h ([1]; Sprague-Dawley, rat, whole blood, po, 30 mg/kg, PO 30 mg/kg, 2 hr, read-out: Blood drug concentration): 165 ± 90 ng/mL
concentration at 4 h [1, 4]: 68.7 ± 31 ng/mL
concentration at 7 h [1, 4]: 23.5 ± 5.2 ng/mL
concentration at 24 h ([1]; Sprague-Dawley, rat, whole blood, po, 30 mg/kg, PO 30 mg/kg, 24 hr, read-out: Blood drug concentration): 0.557 ng/mL
concentration at 2 h ([1]; Sprague-Dawley, rat, whole blood, po, 30 mg/kg, PO 30 mg/kg, whole blood, 2 h after administration, read-out: Blood drug concentration): 266 ng/mL
AUC(0-inf) ([2]; IV 1 mg/kg): 699 ± 474 ng·h/mL
AUC(0-t) ([2]; IV 1 mg/kg): 682 ± 447 ng·h/mL
Vd ([2]; IV 1 mg/kg): 2.42 ± 0.54 L/kg
half-life ([2]; IV 1 mg/kg): 1.13 ± 0.65 h
concentration at 0 hr [2, 5]: 0 ng/mL
concentration at 0.083 hr ([2]; IV 1 mg/kg, 0.083 hr, read-out: Blood drug concentration): 843 ± 237 ng/mL
concentration at 0.25 hr [2, 5]: 575 ± 222 ng/mL
concentration at 0.5 h [2, 5]: 334 ± 229 ng/mL
concentration at 1 h [2, 5]: 170 ± 148 ng/mL
concentration at 2 h [2, 5]: 57.9 ± 63.2 ng/mL
concentration at 4 h [2, 5]: 26 ± 24.1 ng/mL
concentration at 7 h [2, 5]: 10 ng/mL
clearance ([2]; IV 1 mg/kg, read-out: Cl—obs): 31.4 ± 17.4 mL/min/kg
AUC(0-inf) ([2]; PO 3 mg/kg): 4240 ng·h/mL
AUC(0-t) ([2]; PO 3 mg/kg): 4210 ng·h/mL
Cmax ([2]; PO 3 mg/kg): 1460 ng/mL
Tmax ([2]; PO 3 mg/kg): 1 h
half-life ([2]; PO 3 mg/kg): 4.55 h
bioavailability ([2]; PO 3 mg/kg vs IV 1 mg/kg): 183%
concentration at 0 hr [2, 6]: 0 ng/mL
concentration at 0.25 hr [2, 6]: 469 ng/mL
concentration at 0.5 h [2, 6]: 1060 ng/mL
concentration at 1 h [2, 6]: 1460 ng/mL
concentration at 2 h [2, 6]: 932 ng/mL
concentration at 4 h [2, 6]: 138 ng/mL
concentration at 7 h [2, 6]: 82.4 ng/mL
concentration at 24 h ([2]; PO 3 mg/kg, 24 hr, read-out: Blood drug concentration): 4.41 ng/mL
Structure (SMILES): O=C(C1CCN(c2cc(-c3cc(OCCCO)ccc3F)ccn2)CC1)N1N=CCC1c1cc(F)cc(F)c1 (racemic) [Example 18, (5-(3,5-difluorophenyl)-4,5-dihydro-1H-pyrazol-1-yl)(1-(4-(2-fluoro-5-(3-hydroxypropoxy)phenyl)pyridin-2-yl)piperidin-4-yl)methanone]
IC50 (L929 cells): 50 to 100 nM
IC50 (HT29 cells): ≤ 10 nM
